Active and inactive are the calls of the source.
Tests used:
[1] = CRF-BP/CRF-R2 complex antagonists, dose response, cell-based, uHTS hits, 384-well (AID 651639); format: functional, Homo sapiens; conditions: read-out: IC50_Mean
[2] = biological target: T1, Corticotropin-releasing factor receptor 2/Corticotropin-releasing factor-binding protein (Homo sapiens, UniProt P24387+Q13324); experiment: activators of CRF receptor 2 with binding protein – uHTS hits, confirmation (AID 602473); format: functional; conditions: read-out: EC50_Mean
T1 sequence (Q13324 whole entry): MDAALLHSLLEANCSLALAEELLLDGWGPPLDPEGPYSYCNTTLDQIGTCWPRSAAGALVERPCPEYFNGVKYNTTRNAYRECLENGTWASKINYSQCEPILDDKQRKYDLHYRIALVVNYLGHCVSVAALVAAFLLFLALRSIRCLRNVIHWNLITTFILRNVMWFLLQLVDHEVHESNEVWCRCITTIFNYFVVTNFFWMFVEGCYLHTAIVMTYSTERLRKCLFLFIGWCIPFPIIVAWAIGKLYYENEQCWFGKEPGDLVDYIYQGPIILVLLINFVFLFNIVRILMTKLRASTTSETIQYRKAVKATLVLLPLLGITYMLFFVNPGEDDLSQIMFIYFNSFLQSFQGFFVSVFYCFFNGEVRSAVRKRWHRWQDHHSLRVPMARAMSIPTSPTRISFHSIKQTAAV
T1 sequence (P24387 whole entry): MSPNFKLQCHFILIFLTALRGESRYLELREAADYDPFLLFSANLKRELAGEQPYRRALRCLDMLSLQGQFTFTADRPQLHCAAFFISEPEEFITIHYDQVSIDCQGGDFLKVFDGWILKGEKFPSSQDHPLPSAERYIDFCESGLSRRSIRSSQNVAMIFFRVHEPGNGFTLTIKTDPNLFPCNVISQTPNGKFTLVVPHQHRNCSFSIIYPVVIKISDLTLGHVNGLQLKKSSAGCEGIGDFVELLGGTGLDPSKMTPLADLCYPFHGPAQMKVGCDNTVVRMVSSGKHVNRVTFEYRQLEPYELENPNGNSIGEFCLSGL

[3] = biological target: T1, Corticotropin-releasing factor receptor 2/Corticotropin-releasing factor-binding protein; experiment: Dose Response confirmation of uHTS hits for small molecule antagonists of the CRF-binding protein and CRF-R2 receptor complex.; format: functional; conditions: read-out: IC50_Mean
[4] = biological target: T2, DNA repair and recombination protein RAD54-like (Homo sapiens, UniProt Q92698); experiment: inhibitors of human RAD54 branch migration, confirmation, biochemical, fluorescence, cherry-picked samples, dose series (AID 651657); format: functional
T2 sequence (Q92698 whole entry): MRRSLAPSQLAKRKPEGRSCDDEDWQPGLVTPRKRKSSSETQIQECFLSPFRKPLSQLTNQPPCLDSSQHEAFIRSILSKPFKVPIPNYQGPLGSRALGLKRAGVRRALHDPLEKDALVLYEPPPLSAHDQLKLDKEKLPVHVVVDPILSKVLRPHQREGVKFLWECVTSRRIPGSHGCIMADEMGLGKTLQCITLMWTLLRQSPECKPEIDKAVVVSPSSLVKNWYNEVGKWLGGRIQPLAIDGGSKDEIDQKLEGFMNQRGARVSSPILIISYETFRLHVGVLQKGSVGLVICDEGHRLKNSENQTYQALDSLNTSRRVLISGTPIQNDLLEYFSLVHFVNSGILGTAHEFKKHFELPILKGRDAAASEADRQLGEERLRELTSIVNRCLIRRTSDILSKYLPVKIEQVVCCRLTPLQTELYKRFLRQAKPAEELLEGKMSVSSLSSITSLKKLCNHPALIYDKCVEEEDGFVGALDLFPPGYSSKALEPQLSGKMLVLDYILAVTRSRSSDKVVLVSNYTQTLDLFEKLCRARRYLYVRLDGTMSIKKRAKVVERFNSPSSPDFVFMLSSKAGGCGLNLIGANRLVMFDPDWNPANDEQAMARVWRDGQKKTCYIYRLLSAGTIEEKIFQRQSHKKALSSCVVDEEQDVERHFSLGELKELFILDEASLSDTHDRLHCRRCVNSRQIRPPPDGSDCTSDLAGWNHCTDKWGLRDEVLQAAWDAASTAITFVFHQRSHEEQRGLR

[5] = DNA binding of candidate compounds, dose response, artefact control for RAD54 inhibitor project, biochemical, fluorescence polarization, cherry-pick (AID 651673); format: functional
[6] = biological target: T3, Protein skinhead-1 (Caenorhabditis elegans, UniProt P34707); format: functional
T3 sequence (P34707 whole entry): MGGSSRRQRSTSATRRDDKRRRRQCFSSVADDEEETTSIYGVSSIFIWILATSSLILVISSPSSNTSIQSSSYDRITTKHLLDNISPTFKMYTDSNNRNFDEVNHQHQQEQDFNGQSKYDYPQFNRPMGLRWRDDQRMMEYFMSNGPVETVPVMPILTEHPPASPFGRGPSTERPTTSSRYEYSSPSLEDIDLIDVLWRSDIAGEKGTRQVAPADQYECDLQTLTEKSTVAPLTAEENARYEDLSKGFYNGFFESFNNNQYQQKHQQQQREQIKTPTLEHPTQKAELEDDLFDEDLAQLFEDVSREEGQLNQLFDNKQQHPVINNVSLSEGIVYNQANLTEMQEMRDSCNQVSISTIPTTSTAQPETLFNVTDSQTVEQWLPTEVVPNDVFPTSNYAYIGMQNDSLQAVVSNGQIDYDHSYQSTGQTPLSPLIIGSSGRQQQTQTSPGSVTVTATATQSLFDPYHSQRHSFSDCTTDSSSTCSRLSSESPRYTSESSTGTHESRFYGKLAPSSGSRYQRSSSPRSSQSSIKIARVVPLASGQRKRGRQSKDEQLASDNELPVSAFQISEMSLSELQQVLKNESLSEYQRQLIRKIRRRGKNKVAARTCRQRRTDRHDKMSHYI

[7] = biological target: Genome polyprotein (dengue virus type 2, UniProt P29990); experiment: Dengue-2 NS5 methyltransferase inhibitors, primary screen, biochemical, confirmation dose response (AID 588689); format: functional
[8] = biological target: Hepatocyte nuclear factor 4-alpha (Homo sapiens, UniProt P41235); format: functional, cell-based;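 also: biochemical luminescence-based dose-response counterscreen measuring inhibition of HNF4 dimerization, run alongside a screen for blockers of ABHD5–perilipin-5 interaction; split luciferase complementation of HNF4 fusion proteins in cell lysate measuring dimerization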
[9] = biological target: T4, RNA-binding protein pos-1 (Caenorhabditis elegans, UniProt G5EF15); experiment: inhibitors of POS-1/mex-3 RNA binding, dose response, biochemical, fluorescence polarization (AID 1964);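 also: purified POS-1 fused to maltose binding protein made in E. coli; potency of compounds blocking POS-1 binding to fluorescent RNA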
T4 sequence (G5EF15 whole entry): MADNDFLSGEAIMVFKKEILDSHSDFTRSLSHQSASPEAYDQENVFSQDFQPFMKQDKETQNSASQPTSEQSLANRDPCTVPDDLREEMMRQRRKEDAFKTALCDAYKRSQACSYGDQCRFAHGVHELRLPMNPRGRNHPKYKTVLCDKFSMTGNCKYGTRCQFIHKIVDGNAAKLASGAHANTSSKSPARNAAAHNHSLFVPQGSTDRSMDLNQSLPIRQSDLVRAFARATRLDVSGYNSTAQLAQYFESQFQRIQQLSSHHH

[10] = biological target: T5, Zinc finger protein mex-5 (Caenorhabditis elegans, UniProt Q9XUB2); experiment: MEX-5/TCR-2 RNA interaction inhibitors, dose response, biochemical, C. elegans, fluorescence polarization (AID 1960)
T5 sequence (Q9XUB2 whole entry): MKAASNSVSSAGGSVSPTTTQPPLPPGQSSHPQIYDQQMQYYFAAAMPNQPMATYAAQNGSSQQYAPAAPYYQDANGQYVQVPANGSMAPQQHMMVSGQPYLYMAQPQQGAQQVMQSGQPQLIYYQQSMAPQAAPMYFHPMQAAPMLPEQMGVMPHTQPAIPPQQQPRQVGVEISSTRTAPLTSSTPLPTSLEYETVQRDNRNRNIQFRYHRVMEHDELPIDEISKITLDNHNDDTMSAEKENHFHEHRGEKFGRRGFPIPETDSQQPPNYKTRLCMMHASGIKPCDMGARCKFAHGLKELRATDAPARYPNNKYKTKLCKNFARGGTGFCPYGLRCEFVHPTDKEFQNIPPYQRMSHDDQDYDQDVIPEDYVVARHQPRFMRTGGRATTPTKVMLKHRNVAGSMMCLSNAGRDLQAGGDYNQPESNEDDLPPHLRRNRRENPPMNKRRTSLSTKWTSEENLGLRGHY

[11] = system: Vero; experiment: Vero cell toxicity, dose response, cytotoxicity control, plate reader, cherry-pick samples (AID 687020); format: functional, cell-based; conditions: Chlorocebus sabaeus
[12] = HEK293T cell cytotoxicity, dose response, cytotoxicity control for HIV Vif inhibitor project, cherry-picks (AID 652208); format: functional, cell-based
[13] = inhibitors of SNCA 5'UTR-driven reporter translation, confirmation, H4 neuroglioma cells, luminescence (AID 1988); format: functional, cell-based
[14] = system: HEK293; experiment: inhibitors of LMP1-driven NF-kB reporter, dose response, cell-based, HEK293, luciferase, cherry-pick (AID 588343); format: functional; conditions: Homo sapiens
[15] = inhibitors of firefly luciferase expression or activity, dose response, H4 neuroglioma cells, luminescence (AID 1990); format: functional, cell-based
[16] = Luminescence Cell-Based Dose Response HTS to Identify Inhibitors of 5'UTR Stem-Loop Driven Prion Protein mRNA Translation in H4 Neuroglioblastoma Cells. [Related pubchem assays: 1827 (Project Summary), 1813 (Primary HTS)]; format: functional
[17] = biological target: ADP-ribosylation factor GTPase-activating protein 1 (Rattus norvegicus, UniProt Q62848); experiment: Fluorescence polarization-based biochemical high throughput dose response screening assay to identify inhibitors of ADP-ribosylation factor GTPase activating protein 1 (ARFGAP1).; format: functional
[18] = CEM21 lymphoblast cell cytotoxicity, dose response, cytotoxicity control for viral fusion inhibitor project, CellTiter-Glo luminescence, cherry-picked (AID 652042); format: functional, cell-based;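 also: potency for signal decrease meaning cytotoxicity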
[19] = inhibitors of clade B AD8 Env fusion, dose response, cell-based, cherry-pick (AID 652062); format: functional;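 also: luciferase signal from cell-cell fusion driven by HIV-1 clade B AD8 Env; potency is for inhibitors of fusion seen as a drop in luminescence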
[20] = biological target: Beta-galactosidase (Escherichia coli, UniProt Q8VNN2); experiment: PubChem AID 485352; format: functional
[21] = biological target: T6, Type-1 angiotensin II receptor (Homo sapiens, UniProt P30556); experiment: AT1 receptor antagonists, dose response, selectivity assay for APJ receptor antagonist project, cell-based, uHTS hits (AID 463214); format: functional;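 also: antagonist potency against angiotensin II stimulated AT1 response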
T6 sequence (P30556 whole entry): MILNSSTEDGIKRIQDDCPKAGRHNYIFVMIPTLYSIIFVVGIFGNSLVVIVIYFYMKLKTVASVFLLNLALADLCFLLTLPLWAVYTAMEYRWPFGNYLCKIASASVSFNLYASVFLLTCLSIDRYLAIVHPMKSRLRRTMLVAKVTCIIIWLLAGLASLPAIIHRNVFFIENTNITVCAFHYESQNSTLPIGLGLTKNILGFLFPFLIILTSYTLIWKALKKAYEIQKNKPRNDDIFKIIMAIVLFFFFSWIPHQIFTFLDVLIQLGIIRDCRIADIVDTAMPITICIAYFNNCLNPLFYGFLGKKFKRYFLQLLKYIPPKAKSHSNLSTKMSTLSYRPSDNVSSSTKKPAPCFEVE

[22] = biological target: Galanin receptor type 3 (Homo sapiens, UniProt O60755); experiment: Fluorescence-based cell-based primary high throughput dose response assay to identify antagonists of the Galanin Receptor 3 (GalR3).; format: functional
[23] = biological target: Arf-GAP with SH3 domain, ANK repeat and PH domain-containing protein 1 (Homo sapiens, UniProt Q9ULH1); format: functional;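 also: biochemical fluorescence polarization dose–response screen measuring inhibition of ASAP1; ASAP1 GAP domain stimulating GTP hydrolysis by truncated human ARF1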
[24] = biological target: T7, Fatty acid synthase (Homo sapiens, UniProt P49327); experiment: FAS thioesterase domain inhibitors, dose response, biochemical, endpoint fluorescence intensity, uHTS hits (AID 624327); format: functional;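 also: fluorescence from hydrolysis of an O-methyl fluorescein acyl ester substrate by the enzyme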
[25] = biological target: T7, Fatty acid synthase; experiment: FAS thioesterase domain inhibitors, dose response, biochemical, kinetic fluorescence intensity (AID 624326); format: functional;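 also: rate of fluorescence rise from hydrolysis of a fluorogenic O-methyl fluorescein ester substrate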
[26] = biological target: Beta Lactamase (Pseudomonas aeruginosa, UniProt Q932Y6); experiment: beta-lactamase reporter inhibitor potency, dose response, artefact control for NOD2-RIPK2 interaction inhibitor project, BLA reporter cells, FRET fluorescence (AID 651552); format: functional, cell-based
[27] = Fluorescence-based cell-based high throughput dose response assay for inhibitors of the interaction of nucleotide-binding oligomerization domain containing 2 (NOD2) and the receptor-interacting serine-threonine kinase 2 (RIPK2).; format: functional; conditions: Homo sapiens

Chain of Arf-GAP with SH3 domain, ANK repeat and PH domain-containing protein 1 (Q9ULH1 whole entry, the tested form may be a part): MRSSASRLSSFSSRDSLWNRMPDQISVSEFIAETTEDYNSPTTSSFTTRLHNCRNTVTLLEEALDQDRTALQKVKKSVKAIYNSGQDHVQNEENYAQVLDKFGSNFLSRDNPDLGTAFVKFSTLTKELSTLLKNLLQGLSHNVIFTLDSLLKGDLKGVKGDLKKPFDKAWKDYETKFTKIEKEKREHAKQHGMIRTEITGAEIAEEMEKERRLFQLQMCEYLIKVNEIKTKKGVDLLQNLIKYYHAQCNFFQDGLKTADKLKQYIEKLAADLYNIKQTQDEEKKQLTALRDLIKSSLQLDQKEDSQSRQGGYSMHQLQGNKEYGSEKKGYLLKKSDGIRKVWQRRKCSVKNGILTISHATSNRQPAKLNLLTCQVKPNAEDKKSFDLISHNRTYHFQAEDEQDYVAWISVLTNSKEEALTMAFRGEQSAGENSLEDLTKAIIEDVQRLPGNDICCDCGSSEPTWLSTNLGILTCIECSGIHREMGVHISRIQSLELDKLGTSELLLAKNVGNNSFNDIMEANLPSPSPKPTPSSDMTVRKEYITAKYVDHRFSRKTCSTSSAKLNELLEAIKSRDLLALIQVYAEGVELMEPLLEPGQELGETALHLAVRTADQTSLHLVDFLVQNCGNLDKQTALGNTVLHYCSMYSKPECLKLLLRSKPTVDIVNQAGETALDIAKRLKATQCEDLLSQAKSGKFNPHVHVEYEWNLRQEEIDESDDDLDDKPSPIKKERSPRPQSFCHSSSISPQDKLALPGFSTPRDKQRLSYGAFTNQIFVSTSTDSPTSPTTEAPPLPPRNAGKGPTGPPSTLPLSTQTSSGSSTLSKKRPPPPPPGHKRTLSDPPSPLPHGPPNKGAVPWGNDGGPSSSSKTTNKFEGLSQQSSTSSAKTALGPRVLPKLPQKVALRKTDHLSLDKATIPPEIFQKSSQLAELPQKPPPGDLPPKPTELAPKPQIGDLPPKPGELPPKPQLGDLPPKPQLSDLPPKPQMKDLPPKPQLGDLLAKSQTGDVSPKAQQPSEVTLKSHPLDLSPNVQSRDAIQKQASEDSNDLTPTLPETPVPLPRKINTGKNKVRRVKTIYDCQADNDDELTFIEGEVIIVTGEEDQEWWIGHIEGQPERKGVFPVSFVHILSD
Chain of ADP-ribosylation factor GTPase-activating protein 1 (Q62848 whole entry, the tested form may be a part): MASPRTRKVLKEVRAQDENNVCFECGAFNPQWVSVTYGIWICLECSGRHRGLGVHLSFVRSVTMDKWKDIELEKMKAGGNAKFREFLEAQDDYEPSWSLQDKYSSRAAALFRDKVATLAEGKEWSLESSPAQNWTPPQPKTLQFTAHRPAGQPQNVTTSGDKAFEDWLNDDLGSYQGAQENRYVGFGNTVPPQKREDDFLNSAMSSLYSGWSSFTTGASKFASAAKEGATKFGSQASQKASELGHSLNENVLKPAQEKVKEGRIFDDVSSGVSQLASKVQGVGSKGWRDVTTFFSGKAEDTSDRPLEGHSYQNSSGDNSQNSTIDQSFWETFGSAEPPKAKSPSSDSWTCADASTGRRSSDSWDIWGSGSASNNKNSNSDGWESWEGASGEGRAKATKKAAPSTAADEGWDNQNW
T7 sequence (P49327 whole entry, the tested form may be a part): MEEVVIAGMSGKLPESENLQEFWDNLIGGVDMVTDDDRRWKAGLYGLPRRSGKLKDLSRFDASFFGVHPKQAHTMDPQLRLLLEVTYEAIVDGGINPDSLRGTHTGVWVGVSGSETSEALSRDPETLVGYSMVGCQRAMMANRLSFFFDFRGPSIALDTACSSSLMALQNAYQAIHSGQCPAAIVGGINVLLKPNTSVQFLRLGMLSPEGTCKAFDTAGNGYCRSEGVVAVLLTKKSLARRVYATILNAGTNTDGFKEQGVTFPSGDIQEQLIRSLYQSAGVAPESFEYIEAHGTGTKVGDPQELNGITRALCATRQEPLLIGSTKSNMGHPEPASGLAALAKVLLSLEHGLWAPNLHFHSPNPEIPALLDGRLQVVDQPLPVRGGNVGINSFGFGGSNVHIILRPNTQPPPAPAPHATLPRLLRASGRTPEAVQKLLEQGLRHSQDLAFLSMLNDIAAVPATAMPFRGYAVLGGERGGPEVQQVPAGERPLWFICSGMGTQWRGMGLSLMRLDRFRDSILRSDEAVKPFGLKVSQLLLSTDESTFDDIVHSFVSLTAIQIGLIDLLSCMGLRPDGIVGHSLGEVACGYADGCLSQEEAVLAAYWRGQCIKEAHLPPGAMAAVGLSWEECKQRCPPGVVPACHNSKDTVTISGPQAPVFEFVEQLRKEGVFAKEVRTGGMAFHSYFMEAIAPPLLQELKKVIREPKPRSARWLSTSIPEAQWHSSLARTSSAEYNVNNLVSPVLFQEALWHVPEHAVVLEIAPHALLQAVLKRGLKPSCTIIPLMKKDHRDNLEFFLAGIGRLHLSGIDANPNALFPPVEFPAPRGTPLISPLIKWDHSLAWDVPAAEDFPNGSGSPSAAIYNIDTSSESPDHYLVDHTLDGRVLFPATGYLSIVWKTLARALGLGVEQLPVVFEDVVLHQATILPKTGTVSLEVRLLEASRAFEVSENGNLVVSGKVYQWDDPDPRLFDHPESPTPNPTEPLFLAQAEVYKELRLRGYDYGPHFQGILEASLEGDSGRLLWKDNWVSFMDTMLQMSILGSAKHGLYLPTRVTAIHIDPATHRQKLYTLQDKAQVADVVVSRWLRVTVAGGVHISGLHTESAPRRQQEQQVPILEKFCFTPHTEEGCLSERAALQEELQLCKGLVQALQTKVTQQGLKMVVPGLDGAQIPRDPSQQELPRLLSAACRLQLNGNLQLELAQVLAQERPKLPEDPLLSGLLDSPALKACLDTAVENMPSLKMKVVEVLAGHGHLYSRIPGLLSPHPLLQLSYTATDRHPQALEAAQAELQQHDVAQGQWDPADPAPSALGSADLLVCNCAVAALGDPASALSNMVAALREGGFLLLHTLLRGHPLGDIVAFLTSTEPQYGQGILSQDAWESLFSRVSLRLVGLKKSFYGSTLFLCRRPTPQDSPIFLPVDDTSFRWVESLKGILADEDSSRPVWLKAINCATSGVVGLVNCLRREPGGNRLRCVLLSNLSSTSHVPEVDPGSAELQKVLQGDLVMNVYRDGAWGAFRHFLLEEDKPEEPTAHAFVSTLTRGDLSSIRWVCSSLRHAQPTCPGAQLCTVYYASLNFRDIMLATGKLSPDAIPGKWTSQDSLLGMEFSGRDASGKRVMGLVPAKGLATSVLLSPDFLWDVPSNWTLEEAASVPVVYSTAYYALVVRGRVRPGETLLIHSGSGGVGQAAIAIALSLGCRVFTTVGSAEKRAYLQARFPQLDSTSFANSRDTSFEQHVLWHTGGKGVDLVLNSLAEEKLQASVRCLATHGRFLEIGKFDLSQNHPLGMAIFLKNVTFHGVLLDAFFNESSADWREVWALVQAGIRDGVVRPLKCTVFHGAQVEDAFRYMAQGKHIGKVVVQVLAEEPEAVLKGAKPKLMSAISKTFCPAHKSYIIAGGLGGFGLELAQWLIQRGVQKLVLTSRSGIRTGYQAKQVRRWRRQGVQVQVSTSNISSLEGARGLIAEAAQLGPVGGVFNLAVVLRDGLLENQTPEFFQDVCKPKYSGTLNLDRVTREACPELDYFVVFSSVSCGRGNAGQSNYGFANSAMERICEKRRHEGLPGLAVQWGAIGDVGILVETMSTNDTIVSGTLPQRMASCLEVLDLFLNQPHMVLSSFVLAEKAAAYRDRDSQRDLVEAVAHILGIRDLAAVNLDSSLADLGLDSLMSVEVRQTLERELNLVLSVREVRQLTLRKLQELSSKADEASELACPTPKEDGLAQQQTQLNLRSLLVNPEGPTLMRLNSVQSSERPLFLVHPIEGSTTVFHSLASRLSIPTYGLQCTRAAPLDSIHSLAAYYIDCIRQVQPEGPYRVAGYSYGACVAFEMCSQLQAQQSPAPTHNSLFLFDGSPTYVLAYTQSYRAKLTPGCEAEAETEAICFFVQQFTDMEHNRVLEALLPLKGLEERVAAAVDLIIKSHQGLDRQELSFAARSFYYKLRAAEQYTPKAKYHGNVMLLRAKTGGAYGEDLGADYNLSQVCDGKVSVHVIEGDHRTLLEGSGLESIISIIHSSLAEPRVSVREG
Chain of Beta Lactamase (Q932Y6 whole entry, the tested form may be a part): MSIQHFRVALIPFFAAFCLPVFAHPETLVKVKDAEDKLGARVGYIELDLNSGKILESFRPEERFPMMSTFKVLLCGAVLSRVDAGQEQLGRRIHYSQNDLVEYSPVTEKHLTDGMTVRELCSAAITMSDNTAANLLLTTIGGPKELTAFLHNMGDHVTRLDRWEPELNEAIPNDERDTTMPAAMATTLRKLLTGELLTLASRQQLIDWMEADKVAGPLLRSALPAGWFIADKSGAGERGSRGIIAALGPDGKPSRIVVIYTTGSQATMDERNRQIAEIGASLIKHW
Chain of Hepatocyte nuclear factor 4-alpha (P41235 whole entry, the tested form may be a part): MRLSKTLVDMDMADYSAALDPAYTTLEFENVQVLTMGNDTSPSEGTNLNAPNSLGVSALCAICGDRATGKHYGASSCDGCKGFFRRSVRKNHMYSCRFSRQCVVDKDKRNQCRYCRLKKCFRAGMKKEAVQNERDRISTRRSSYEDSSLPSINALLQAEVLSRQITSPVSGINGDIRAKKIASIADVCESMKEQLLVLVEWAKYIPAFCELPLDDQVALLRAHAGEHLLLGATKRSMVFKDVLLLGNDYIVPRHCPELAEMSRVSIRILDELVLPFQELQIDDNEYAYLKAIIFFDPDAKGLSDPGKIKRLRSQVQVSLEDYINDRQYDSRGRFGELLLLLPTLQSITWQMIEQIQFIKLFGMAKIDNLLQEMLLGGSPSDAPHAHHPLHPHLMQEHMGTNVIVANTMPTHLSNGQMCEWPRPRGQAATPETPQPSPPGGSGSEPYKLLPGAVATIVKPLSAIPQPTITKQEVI

CC(C)(C)c1cc(C(=O)NNC(=O)Nc2cccc(Cl)c2)n(Cc2ccccc2)n1
IC50 [1]: 5.13 µM (active)
EC50 [2]: > 53 µM (inactive)
IC50 [3]: 2 µM (active)

COc1ccc(OC)c(S(=O)(=O)N2c3ccccc3CC2C)c1 (configuration not stated)
IC50 [1]: 3.48 µM (active)
EC50 [2]: > 53 µM (inactive)
IC50 [3]: 33.9 µM (active)

CCOC(=O)c1cnc2c(C)cc(Cl)cc2c1NCCCN1CCOCC1
AC50 [4]: 17.4 µM (active)
AC50 [5]: 60.9 µM (active)

COC/C=C/C1=CC2=CC(=O)C(C)(OC(=O)C3CCCC3)C(=O)C2=CO1 (configuration not stated)
IC50 [6]: > 100 µM (inactive)
IC50 [7]: 90.2 µM (active)
IC50 [8]: 11.4 µM (inactive)
EC50 [9]: > 300 µM (not active)
EC50 [10]: > 300 µM (not active)

COc1ccc2ccccc2c1CNC(C)c1ccccc1 (configuration not stated)
AC50 [11]: 31 µM (active)

COc1ccc2cc(-c3cc(C(=O)OCC(=O)NC4CCS(=O)(=O)C4)c4ccccc4n3)ccc2c1 (configuration not stated)
AC50 [12]: 29.3 µM (active)
EC50 [13]: 6.8 µM (active)
AC50 [14]: 1.09 µM (active)
EC50 [15]: 10.1 µM (inconclusive)
EC50 [16]: 7.41 µM (active)

COc1cc(/C=C(\C#N)c2ccccn2)ccc1OCC(=O)Nc1c(Cl)cccc1Cl
IC50 [17]: 96.6 µM (inactive)

O=C(Nc1ccc(CN2CCOCC2)cc1)c1ccc(-c2cccc(Cl)c2)o1
AC50 [18]: 44.2 µM (active)
IC50 [17]: 81.7 µM (inactive)
AC50 [19]: 32.2 µM (active)

Fc1ccc(NC(=S)NNc2ncc(C(F)(F)F)cc2Cl)c(F)c1
EC50 [20]: > 40 µM (inactive)
IC50 [21]: 15.6 µM (active)
IC50 [22]: 1.79 µM (active)

O=C(Cn1nc(-c2ccc3c(c2)OCCO3)ccc1=O)Nc1ccc(-n2cnnn2)cc1
IC50 [23]: 38.5 µM (inactive)

CCOC(=O)[C@]12Cc3ccc(C)cc3[C@H]1N(C1CCCCC1)C(=O)c1ccccc12
IC50 [24]: 6.12 µM (active)
IC50 [25]: 6.79 µM (active)
IC50 [26]: 20 µM (inactive)
IC50 [27]: 2.19 µM (active)

N=C(N/N=C/c1ccnc2ccccc12)SC1CC(=O)N(c2ccc(Br)cc2)C1=O (configuration not stated)
IC50 [23]: 12.7 µM (inactive)
